# Experimental data as given in US7557109B2, “Treatment for attention-deficit hyperactivity disorder” (priority 2001, dated 2009).
# Legend:
# [1] = test system: wild-type mice; experiment: DRL-36s schedule after FR5 conditioning, wild-type mice; assay type: in vivo
# Method: Experiments were conducted in eight identical mouse operant chambers (16×14×13 cm) with stainless steel grid floors (ENV-307M; Med Associates Inc., Georgia, Vt., USA) housed in sound-insulating and ventilated cubicles. Each chamber was equipped with two ultra-sensitive retractable levers, one on each side of a food cup containing photocells to register nose poke behavior and in which a pellet dispenser delivered 20 mg food pellets (Formula A/I, P.J. Noyes Company Inc., Lancaster, N.H., USA). A red house light (50 lux) was located in the center of the wall opposite to the food cup and levers. Stimulus lights were located above each lever and above the food cup. Experimental sessions were controlled and data were recorded by a computer.
# Mice trained on DRL procedure first received operant conditioning. DRL-36s task was adapted from procedures used in rats (O'Donnell and Seiden, supra). Briefly, mice first learned to respond for food under a DRL 6 sec schedule, which means that mice had to wait at least 6 seconds between successive lever presses in order to obtain a food reward. Subsequently the schedule requirement was increased every session in steps of 6 sec to 36 sec (DRL 36 sec). Each session started with the illumination of the house light, the stimulus light above the food cup and the presentation of the left lever for the duration of the session. […] If the mouse presses too soon, no reinforcement is given, the clock is reset to zero, and a new 36-sec waiting period starts. In this way, the DRL-36s schedule task primarily measures waiting strategies which reflect hyperactivity-impulsivity behaviors associated with ADHD. Animals were trained until performances on the DRL 36 sec schedule had stabilized (approximately 25 sessions). All training sessions lasted 60 min and were conducted 5 days per week from Monday-Friday. The total number of lever presses (responses), the total number of reinforcements, and the inter-response times (IRT) are recorded.
# Data were analyzed as described elsewhere (Richards et al., J. Exp. Anal. Behav. 60:361-385, 1993; Sabol et al., Psychopharmacology 121:57-65, 1995). The inter-response time (IRT) analysis included three measures for the characterization of DRL 36 sec IRT distributions: peak area, peak location and burst ratio. Only peak area (PkA) and peak location (PkL) are presented. The PkA measure is the area of the obtained IRT distribution of a mouse above the corresponding negative exponential, a computation based on mean of obtained IRT durations excluding the burst component of IRT<3 sec (see Richards et al., supra, for details). […] Thus, decreases in PkA indicate that the mouse's IRT distribution becomes more similar to random performance indicating loss of schedule control. PkL is calculated as the median of the area of the obtained IRT distribution above the corresponding negative exponential.
# Mice were conditioned and challenged on a DRL-36s schedule according to the methods of Example 7, with the following modifications. Because 1BKO mice had difficulty learning the DRL-36s schedule following conditioning on an FR1, wild-type and 1BKO mice were conditioned on a fixed rate 5 (FR5) schedule. In FR5, instead of pressing the lever once for a reward, animals have to press 5 times. The rationale for changing the operant conditioning was that by increasing the number of responses necessary for reinforcement, the wild-type mice should have greater difficulty and the 1BKO (which have higher response rates anyway) should have less difficulty getting reinforcements.
# [2] = in vivo; cited from earlier work
# [3] = test system: coloboma (Cm) mutant mice; assay type: in vivo
# Text: Heterozygote coloboma mice were originally purchased from The Jackson Laboratory (Bar Harbor, Me.) and were bred and maintained in our colony. In the current study, 20 mutant mice and 25 wild-type littermates, all aged 8 to 10 weeks, were used. Animals were divided into 4 groups: mutant/drug-treatment (n=11), mutant/vehicle-control (n=9), wild-type/drug-treatment (n=13), wild-type/vehicle-control (n=12). Age and gender were balanced among groups. All animals were housed as littermates (2-4 mice per cage) and were maintained on ad libitum food and water with a 12 hr light/dark cycle.
# Open-field testing was performed under normal lighting conditions. Mice were brought into the experimental room and allowed at least 1 hr of acclimatization. Thirty minutes prior to testing, animals received an ip. injection of either d-amphetamine (4 mg/kg), eltoprazine (0.5 mg/kg) or saline. The mice were then placed in the activity monitor arenas (27×27×20 cm, Med Associates). Four animals of matching genotype and treatment were tested at one time. Each testing session lasted 40 minutes, after which animals were returned to their home cages. An automated infrared beam array system measured locomotor activity (total distance traveled) and number of center entries (zone crossings).
# [4] = biological target: dopamine receptors; details: read-out: Ki, affinity for dopamine receptors; cited from earlier work
# [5] = broad range of doses; cited from earlier work
smiles,measurement,setting,value
"c1cc2c(c(N3CCNCC3)c1)OCCO2 [eltoprazine, 1-(2,3-dihydro-1,4-benzodioxanyl-5-yl) piperazine]",number of reinforcements,[1]; 0.5 mg/kg and 1 mg/kg i.p. (FIG. 13A),significantly decreased reinforcements
same,response rate,[1]; 0.5 mg/kg i.p. (FIG. 13B),significantly decreased response rates
same,absolute bioavailability,[2],about 95%
same,cumulative renal excretion of unchanged eltoprazine,[2],about 40%
same,dose dependence of plasma concentrations,[2],increase in a linear dose-dependent manner
same,plasma elimination half-life,[2],5 to 12 h
same,terminal half-life,[2],7 to 9 h
same,time to maximum plasma concentration after administration,[2],1 to 4 h
same,reduction of total ambulatory distance from that of saline-treated Cm mutants,[3]; 0.5 mg/kg i.p.,more than 50%
same,number of zone crossings,[3]; 0.5 mg/kg i.p. (FIG. 5B),decreased the number of zone crossings in Cm mutants to within the range of saline-treated wild-type mice
same,exploratory preference (center vs periphery of arena),"[3]; 0.5 mg/kg i.p. (FIG. 6A, 6B)",no effect on exploratory preference
same,rearing behavior,"[3]; 0.5 mg/kg i.p. vs saline (FIG. 6C, 6D)",same pattern of rearing behavior
same,total ambulatory distance,"[3]; 0.5 mg/kg i.p., 40 min session, saline 17725±6636 cm (FIG. 5A)",8641±1811
same,sedative effect,"[3]; 0.5 mg/kg i.p., open field",no sedative effect
same,Ki,[4],> 1000 nM
same,overall safety and tolerance,[5],good
